Reference: US20240174684A1, “INHIBITORS OF cGAS ACTIVITY AS THERAPEUTIC AGENTS” (BELLBROOK LABS, LLC, priority 2021, published 2024)
≈ marks a conversion by molar mass, not a printed value. Entries after “also recorded” stand apart in the source; their conditions may differ. Where two headings read alike, the source gives them in different places.

Legend:
[1] = Pharmacokinetics in C57BL/6 female mice, IV and PO; format: in vivo; conditions: plasma; for AUC: read-out: AUC0-tidc
Method: The pharmacokinetic characteristics of Compound 5 (BBL-100455) were estimated in C57BL/6 female mice following intravenous (IV) bolus and oral (PO) administration.
In short, the compound of the disclosure at 0.6 mg/mL in PBS containing 5% MSO and 25% PEG-400 was administered by IV injection (3 mg/kg). For PO (30 mg/kg), the compound of the disclosure at 3 mg/mL in PBS containing 10% MSO and 50% PEG-400 was orally administered. At the given time points (0.083 h, 0.167 h, 0.25 h, 0.50 h 1 h, 2 h, 4 h, 7 h, 16 h and 24 h), blood samples were collected using heparinized calibrated pipettes. Samples were centrifuged at 15000 rpm for 10 min. Subsequently, blood plasma was collected from the upper layer. The plasma was frozen at −80° C. for later analysis. At 2 h. 7 h and 24 h, brain samples were collected and immediately stored at […] for later analysis.
The analytical curve was constructed using ten non-zero standards with Compound 5 (BBL-100455) concentration ranging from 1 to 2500 ng/ml in the blank plasma and brain tissue. A blank sample (matrix sample processed without internal standard) was used to exclude contamination. The linear regression analysis of BBL- 100455 was performed by plotting the peak area ratio (y) against the BBL-100455 concentrations (x) in ng/ml.
The individual and average compound 5 concentration-time data for IV and PO dosed groups are presented in FIG. 4 for plasma concentration. All PK parameters were estimated using non-compartmental analyses with Phoenix/WINONLIN.

cGAS [2] = molecular target: T1, cGAS (Homo sapiens, UniProt Q8N884); assay: Transcreener cGAS enzymatic assay (FP); format: biochemical
T1 sequence (Q8N884 whole entry): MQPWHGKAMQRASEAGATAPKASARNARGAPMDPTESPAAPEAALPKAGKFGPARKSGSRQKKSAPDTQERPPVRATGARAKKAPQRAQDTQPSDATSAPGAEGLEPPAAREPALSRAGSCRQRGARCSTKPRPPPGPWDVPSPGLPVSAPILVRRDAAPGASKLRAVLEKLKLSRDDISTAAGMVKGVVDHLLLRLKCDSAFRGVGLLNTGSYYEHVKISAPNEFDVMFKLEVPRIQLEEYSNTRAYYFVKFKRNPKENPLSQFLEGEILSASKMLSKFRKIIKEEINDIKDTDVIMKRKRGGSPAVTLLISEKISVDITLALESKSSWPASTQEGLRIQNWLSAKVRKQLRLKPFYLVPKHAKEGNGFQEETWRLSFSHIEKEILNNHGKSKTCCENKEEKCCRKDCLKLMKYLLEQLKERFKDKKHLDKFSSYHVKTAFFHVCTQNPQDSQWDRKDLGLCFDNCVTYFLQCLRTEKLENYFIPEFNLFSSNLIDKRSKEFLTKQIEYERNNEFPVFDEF
Outline: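 Human cGAS (30 nm) inhibition, 60 min reactions, FP read-out, standard conditions 100 μM ATP and GTP plus 62.5 nM bp ISD. Also run at 1 mM ATP and GTP (physiological), with 200 μM MnCl2, and with mouse cGAS under standard conditions; IC50 reported.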

TLR4 pathway = assay: Reporter gene assay NFKB (TLR4); format: cell-based; conditions: at concentrations above 25 μM
Method: (§1) CETSA was also used to confirm that the compounds are binding to cGAS in cells; THP-1 cells are used for this analysis. Compounds were tested in dose response mode by incubating with cells for 1.5 hours at 37° C., followed by pelleting and re-suspending in PBS, heating to 51.5° C. for 3 min and cooling to room temp. Cells were then lysed, debris, including denatured cGAS, was pelleted and the supernatant was analyzed for soluble cGAS by Western Blot using anti-cGAS primary Ab (Cell Signaling). Band intensity was analyzed using Image J software. Stimulation with cGAMP directly activates STING, circumventing cGAS; this was used to determine if compounds had effects on downstream components of cGAS/STING signaling. The IFN-6 ELISA was used as the primary measure of cellular potency and selectivity (Table 3) and used the reporter gene assays for assessing off-target activity with other pattern recognition receptors.
(§2) The reporter gene assays were used to assess off-target activity with IRF30Luc (RIG-1) or NFKB (TLR4); CellTiter Glo (ATP levels) and Presto Blue (reducing equivalents) were used to assess cytotoxicity; all assays were performed in dose response mode. […] The inventors recently began using human PBMCs to assess cellular potency in a more physiologically relevant context.

MDR1 (P-glycoprotein) = assay: MDCK-MDR1 permeability A→B; format: in vitro ADME, Canine; conditions: dog; MDCK cells expressing human MDR1, A→B; read-out: MDCK-MDR Permeability A→B
Outline: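 Permeability measured apical-to-basolateral in MDCK cells expressing human MDR1, reported as binned ranges in cm/s×10^−6. Metabolic stability determined as half-life in mouse and human hepatocytes, reported as binned ranges in minutes.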

[3] = Kinetic aqueous solubility (KSOL) in PBS, pH 7.4; format: physicochemical; conditions: aqueous buffer, kinetic from dmso stock
Method: ADME studies: Compound A and the compounds of the disclosure were tested for aqueous solubility (KSOL), metabolic stability (human and mouse […]) and permeability (Caco-2 and/or MDR1-MDCK cells) to provide an initial indication of oral bioavailability.
The favorable physicochemical properties are reflected in promising results in in vitro ADME tests. […] Metabolic stability, which was routinely measured with mouse and human hepatocytes, is outstanding, with t, greater than 2 hours for all of the compounds of the disclosure in which it has been measured. Cell permeability was measured using MDCK cells expressing human MDR1 (P-glycoprotein) to assess passive permeability as well as active transport out of the cell. […] Numerous compounds in Table 1 meet these permeability criteria, which is consistent with their design for TPSA <140 Å^2 and increased lipophilicity.

cGAS [4] = molecular target: T1, cGAS; assay: Cellular thermal shift assay (CETSA) in THP-1 cells; format: cell-based; conditions: heat treatment 51.5 °C
Method: Panel A is an image of a western blot of the stabilization measure; panel B is a bar graph of the stabilization measure. Heat treatment was conducted at 51.5 ° C.
as §1

[5] = Cytotoxicity, CellTiter Glo (ATP levels) and Presto Blue (reducing equivalents); format: cell-based; conditions: CellTiter Glo, Presto Blue, dose response
Method: as §2

[6] = mouse, IV 3 mg/kg, C57BL/6 female mice
[7] = mouse, PO 30 mg/kg, C57BL/6 female mice

Vss ([1]; IV 3 mg/kg, C57BL/6 female mice): 0.853 L/kg
bioavailability ([1]; female, C57BL/6, mouse, PO 30 mg/kg vs IV 3 mg/kg, bioavailability): 29.3%
AUC(0-inf) [1, 6]: 4860 ng·h/mL
clearance [1, 6]: 10.3 mL/min/kg
half-life [1, 6]: 2.3 h
AUC [1, 6]: 4630 ng·h/mL
AUC(0-inf) [1, 7]: 13600 ng·h/mL
CL/F [1, 7]: 36.8 mL/min/kg
Cmax [1, 7]: 2870 ng/mL
Tmax [1, 7]: 0.5 h
half-life [1, 7]: 2.25 h
AUC [1, 7]: 13600 ng·h/mL
IC50 (cGAS [2]; high ATP and GTP (1 mM) to mimic physiological conditions, read-out: IC50 FP Physiological): 0.5 to 1 µM
IC50 (cGAS [2]; standard conditions: 100 μM ATP and GTP, 62.5 nM bp ISD, 60 minute reactions, read-out: IC50 FP Standard): 0.05 to 0.1 µM
Papp A→B (MDR1 (P-glycoprotein)): 5 to 10 ×10⁻⁶ cm/s
solubility kinetic [3]: 8 µM (≈ 4.05 µg/mL)
Structure (SMILES): Cc1nc(N2C[C@@H](CC(=O)Nc3ccc(-c4ccccc4)cc3)C[C@H]2C(=O)O)c2oc3ccccc3c2n1 [Compound 5, (2S,4R)-4-(2-([1,1′-biphenyl]-4-ylamino)-2-oxoethyl)-1-(2-methylbenzofuro[3,2-d]pyrimidin-4-yl)pyrrolidine-2-carboxylic acid]
Off-target activity with the TLR4 pathway (TLR4 pathway): some off-target activity
Stabilization of cGAS in cells (CETSA) (cGAS [4]): dose dependent stabilization; also recorded: intracellular target engagement
Concentration showing cytotoxicity [5]: above 25 μM
